Experimental data: patent US20200405657A1, “TREATMENT OF PAIN USING ALLOSTERIC MODULATOR OF TRPV1” (priority 2019, published 2020)
“Also recorded” adds a separate entry of the source.

Experiments:
Type in all cases: cell-based
[1] = target: T1, rat TRPV1 (Rattus norvegicus, UniProt O35433); assay: TRPV1-mediated calcium influx (Fluo-4) in HEK cells inducibly expressing TRPV1; conditions: for calcium influx in response to individual terpene / calcium flux in response to individual cannabinoid: HEK+TRPV1 cells; for calcium influx in response to individual terpene: each terpene applied alone; for calcium flux in response to individual cannabinoid: each cannabinoid applied alone
T1 construct: FLAG; expressed in transfected cells; host or cells: TRex HEK293 (pcDNA6TR), rat TRPV1 cDNA in pcDNA4TO, tetracycline-induced
Procedure: The HEK293 cell line was stably transfected with the pcDNA6TR (Invitrogen, CA) plasmid (encoding the tetracycline-sensitive TREx repressor protein), and was maintained in DMEM+10% fetal bovine serum (inactivated at 55° C. for 1 h)+2 mM glutamine in humidified 5% CO2 atmosphere at 37° C. Selection pressure on the TRex 293 cells was maintained by continuous culture in 10 μg/ml Blasticidin (Sigma, St Louis, Mo.).
For production of TRex HEK293 cells with inducible expression of TRPV1, parental cells were electroporated with the rat TRPV1 cDNA in the pcDNA4TO vector and clonal cell lines were selected by limiting dilution in the presence of 400 μg/ml zeocin (Invitrogen, CA). TRPV1 expression was induced using 1 μg/ml tetracycline for 16 h at 37° C.
(§1) Calcium responses mediated by TRPV1 were tested by calcium assay in the cell culture system. Cells were washed and incubated with 0.2 μM fluo-4 acetoxymethyl ester (“Fluo-4”) for 30 minutes at 37° C. in a standard modified Ringer's solution of the following composition (in mM): NaCl 145, KCl 2.8, CsCl 10, CaCl2 10, MgCl2 2, glucose 10, Hepes.NaOH 10, pH 7.4, 330 mOsm. Cells were transferred to 96-well plates at 50,000 cells/well and stimulated as indicated. Calcium signals were acquired using a Flexstation 3 (Molecular Devices, Sunnydale, USA). Data was analyzed using SoftMax® Pro 5 (Molecular Devices). Where indicated, nominally calcium-free external conditions were achieved by the preparation of 0 mM CaCl2 Ringer solution containing 1 mM EGTA. Where indicated, capsaicin (10 μM) and ionomycin (500 nM) were used as positive controls to induce calcium responses. Capsazepine (10 μM) was used where indicated to specifically antagonize TRPV1-mediated calcium responses. Where indicated, baseline traces (no stimulation, NS) were subtracted. Where indicated, vehicle alone traces were subtracted. Where indicated, vehicle comprising various diluents matched to corresponding mixtures was used as a negative control.

[2] = system: HEK wild type cells; assay: Calcium flux (Fluo-4) in wild-type HEK cells without the TRPV1 construct; conditions: for calcium response to individual cannabinoid: cells without TRPV1
Procedure: as §1
When wild-type HEK cells without the TRPV1 construct were presented with the same stimulus conditions, calcium fluxes were not observed (FIGS. 5A-5C).

[3] = target: T1, rat TRPV1; assay: Whole-cell patch clamp in single HEK293 cells overexpressing rat TRPV1; conditions: for inward current: average of 6 independent experiments; for outward current: 5 μM myrcene or 1 μM capsaicin
Procedure: HEK293 cells were kept in sodium-based extracellular Ringer's solution containing 140 mM NaCl, 1 mM CaCl2, 2 mM MgCl2, 2.8 mM KCl, 11 mM glucose, and 10 mM HEPES-NaOH, pH 7.2 and osmolarity 300 mOsmol. The cells' cytosol was perfused with intracellular patch pipette solution containing 140 mM Cs-glutamate, 8 mM NaCl, 1 mM MgCl2, 3 mM MgATP, and 10 mM HEPES-CsOH. The standard internal Ca^2+ concentration was buffered to 180 nM with 4 mM Ca and 10 mM BAPTA. The level of free unbuffered Ca was adjusted using the calculator provided with WebMaxC (http://www.stanford.edu/˜cpatton/webmaxcS.htm). The pH of the final solution was adjusted to pH 7.2 and osmolarity measured at 300 mOsmol.
1 μM capsaicin was used as a positive control for TRPV1 activation. Rapid extracellular solution application and exchange was performed with the SmartSquirt delivery system (Auto-Mate Scientific, San Francisco). The system includes a ValveLink TTL interface between the electronic valves and the EPC-9 amplifier (HEKA, Lambrecht, Germany). This configuration allows for programmable solution changes via the PatchMaster software (HEKA, Lambrecht, Germany).
Patch-clamp experiments were performed in the whole-cell configuration at 21-25° C. Patch pipettes had resistances of 2-3 MΩ. Data was acquired with PatchMaster software controlling an EPC-9 amplifier. Voltage ramps of 50 ms spanning the voltage range from −100 to 100 mV were delivered from a holding potential of 0 mV at a rate of 0.5 Hz over a period of […]. Voltages were corrected for a liquid junction potential of 10 mV. Currents were filtered at 2.9 kHz and digitized at 100 us intervals. Capacitive currents were determined and corrected before each voltage ramp. The development of currents for a given potential was extracted from individual ramp current records by measuring the current amplitudes at voltages of −80 mV and +80 mV. Data were analyzed with FitMaster (HEKA, Lambrecht, Germany), and IgorPro (WaveMetrics, Lake Oswego, Oreg., USA). Where applicable, statistical errors of averaged data are given as mean±s.e.m.

[4] = target: TRPV1 (Rattus norvegicus, UniProt O35433); assay: TRPV1 desensitization over multiple sequential ligand applications (FIG. 13); conditions: Area Under the Curve analysis, calcium assays or electrophysiology
TRPV1, sequence (O35433 whole entry): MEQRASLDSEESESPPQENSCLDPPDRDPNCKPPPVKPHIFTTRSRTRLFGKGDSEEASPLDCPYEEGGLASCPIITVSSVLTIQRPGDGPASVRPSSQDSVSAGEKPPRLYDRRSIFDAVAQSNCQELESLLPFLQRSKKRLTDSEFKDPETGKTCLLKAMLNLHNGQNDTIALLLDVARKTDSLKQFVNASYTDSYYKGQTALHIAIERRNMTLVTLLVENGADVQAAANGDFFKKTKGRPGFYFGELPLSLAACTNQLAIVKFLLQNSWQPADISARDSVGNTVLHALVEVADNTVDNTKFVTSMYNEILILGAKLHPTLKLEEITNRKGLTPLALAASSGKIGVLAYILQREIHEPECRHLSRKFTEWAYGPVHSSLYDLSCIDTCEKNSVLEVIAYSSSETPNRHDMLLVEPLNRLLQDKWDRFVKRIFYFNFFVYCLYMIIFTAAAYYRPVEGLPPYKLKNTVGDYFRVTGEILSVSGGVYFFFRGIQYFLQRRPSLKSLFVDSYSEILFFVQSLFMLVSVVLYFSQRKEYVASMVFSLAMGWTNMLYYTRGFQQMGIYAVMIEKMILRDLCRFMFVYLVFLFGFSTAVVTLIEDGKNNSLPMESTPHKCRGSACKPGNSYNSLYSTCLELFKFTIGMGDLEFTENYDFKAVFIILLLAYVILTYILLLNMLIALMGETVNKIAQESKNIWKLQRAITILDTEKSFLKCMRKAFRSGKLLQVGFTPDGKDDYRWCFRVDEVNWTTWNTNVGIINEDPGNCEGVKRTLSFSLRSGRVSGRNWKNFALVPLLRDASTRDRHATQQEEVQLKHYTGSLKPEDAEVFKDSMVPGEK

T1 sequence (O35433 whole entry): as above

CC(C)=CCC[C@](C)(O)[C@@H]1CC=C(C)CC1 [Bisabolol, 6-methyl-2-(4-methylcyclohex-3-en-1-yl)hept-5-en-2-ol]
calcium influx in response to individual terpene [1]: not observed

Oc1cc2c(cc1O)CN(C(=S)NCCc1ccc(Cl)cc1)CCC2 [capsazepine, reference compound]
myrcene-induced calcium flux in response to TRPV1 inhibitor ([1]; cells activated with 3.5 μg/ml myrcene, 10 μM capsazepine): diminished

C=CC(C)(O)CCC=C(C)C (stereo not drawn) [Linalool, 3,7-dimethyl-1,6-octadien-3-ol]
calcium influx in response to individual terpene [1]: not observed

C=C(C)[C@@H]1CCC(C)=C[C@H]1c1c(O)cc(CCC)cc1O [cannabidivarin, Cannabidivarin]
calcium response to individual cannabinoid [2]: only minimal or absent | calcium flux in response to individual cannabinoid [1]: most potent; also recorded: calcium flux was detected

C=C/C(C)=C/CC=C(C)C [Ocimene]
calcium influx in response to individual terpene [1]: not observed

COc1cc(CNC(=O)CCCC/C=C/C(C)C)ccc1O [capsaicin, reference compound]
current induced ([3]; 1 μM capsaicin): 4-10 nA | inward current ([3]; 1 μM capsaicin after myrcene): approximately 9 nA | outward current [3]: lower amplitude than the inward current | TRPV1 channel state on activation (IV relationship) ([3]; 5 μM myrcene, 1 μM capsaicin): dilated state | capsaicin calcium flux ([2]; HEK wild type cells without a construct encoding TRPV1): not detected | capsaicin-specific calcium flux ([1]; TRPV1-induced HEK cells): capsaicin-specific calcium fluxes | desensitization of the channel [4]: can cause desensitization

C=C(C)[C@@H]1CCC(C)=C[C@H]1c1c(O)cc(CCCCC)c(C(=O)O)c1O [cannabidiolic acid, Cannabidiolic Acid]
calcium response to individual cannabinoid [2]: only minimal or absent | calcium flux in response to individual cannabinoid [1]: most potent; also recorded: calcium flux was detected

CCCCCc1cc(O)c(C/C=C(\C)CCC=C(C)C)c(O)c1C(=O)O [cannabigerolic acid, Cannabigerolic Acid]
calcium response to individual cannabinoid [2]: only minimal or absent | calcium flux in response to individual cannabinoid [1]: most potent; also recorded: calcium flux was detected

C=CC(C)(O)CCC=C(C)CCC=C(C)C (stereo not drawn) [Nerolidol, 3,7,11-Trimethyl-1,6,10-dodecatrien-3-ol]
calcium influx in response to individual terpene [1]: more modest agonist activity; also recorded: activated TRPV1-mediated Ca^2+ influx | calcium influx in response to individual terpene ([1]; listed as nerolidol): significant calcium flux was detected

C=C(C)[C@@H]1CCC(C)=C[C@H]1c1c(O)cc(CCCCC)cc1O [Cannabidiol]
Imax of activated current ([3]; 30 μM CBD): up to 5 nA | Erev of rectifying current ([3]; CBD): ~0 mV | sensitivity of CBD-induced current ([3]; capsazepine application, washout of CBD): sensitive to both capsazepine and washout | calcium response to individual cannabinoid [2]: only minimal or absent | calcium flux in response to individual cannabinoid [1]: most potent; also recorded: calcium flux was detected | desensitization of the channel [4]: cause desensitization

C=CC(=C)CCC=C(C)C [Myrcene, 7-methyl-3-methylideneocta-1,6-diene]
outward current [3]: lower amplitude than the inward current | TRPV1 channel state on activation (IV relationship) ([3]; 5 μM myrcene, 1 μM capsaicin): primarily in State 1 | inward current ([3]; 5 μM myrcene, 1 mM Ca): approximately 0.5 nA | current induced ([3]; 5 μM, 10 μM and 150 μM myrcene): 0.5-2.2 nA | dose response of current in individual cells ([3]; 5, 10, 150 μM): dose-dependent response | response to second stimulus Cannabidiol after prior Myrcene saturation ([3]; Myrcene at 0 mM external Ca2+, then Cannabidiol at 1 mM external Ca2+, versus no prior Myrcene): suppressed | activator strength at TRPV1 ([3]; producing nA currents): strong activator of TRPV1 | calcium influx, calcium-free medium ([2]; wild-type HEK cells without TRPV1, myrcene 0.43-3.5 μg/ml): not observed or were only minimal | calcium flux in response to myrcene ([2]; wild-type HEK cells, 3.5-0.43 μg/ml, compared with HEK+TRPV1): much smaller | calcium-mediated fluorescence, calcium-free medium, high concentration ([1]; 0 mM external calcium + 1 mM EGTA, 3.5 μg/ml): induced such increase | calcium-mediated fluorescence, calcium-free medium, low concentrations ([1]; 0 mM external calcium + 1 mM EGTA, 0.43, 0.875 and 1.75 μg/ml): did not cause increase | calcium response to different concentrations of myrcene ([1]; 3.5, 1.75, 0.875 and 0.43 μg/ml): dose-dependent | calcium influx in response to individual terpene [1]: significant agonist activity | calcium influx in response to individual terpene ([1]; listed as myrcene): significant calcium flux was detected; also recorded: did not account for 100% of the calcium influx signal | desensitization of the channel [4]: cause desensitization

CCCCCc1cc(O)c2c(c1)OC(C)(CCC=C(C)C)C=C2 (stereo not drawn) [cannabichromene, Cannabichromene]
calcium response to individual cannabinoid [2]: only minimal or absent | calcium flux in response to individual cannabinoid [1]: most potent; also recorded: calcium flux was detected
